Laboratory results from ChEMBL document CHEMBL1201862, “PubChem BioAssay data set” (2004).
Active and inactive are the calls of the source.

What was measured:
SUMO-activating enzyme [1] = biological target: T1, SUMO-activating enzyme (Homo sapiens, UniProt Q9UBT2); assay: SUMOylation inhibitor hit validation, confirmation, SUMOylation inhibitor project, biochemical, AlphaScreen (AID 2018); type: functional
SUMO-activating enzyme [2] = biological target: T1, SUMO-activating enzyme; assay: inhibitors of in vitro SUMOylation cascade, primary screen, biochemical, HTRF, uHTS (AID 2006); type: protein-complex assay
[3] = biological target: Peroxisome proliferator-activated receptor gamma/Nuclear receptor coactivator 2 (Homo sapiens, UniProt P37231); assay: (§1) TR-FRET dose response biochemical High Throughput Screening assay for agonists of the steroid receptor coactivator 2 (SRC-2) recruitment by the peroxisome proliferator-activated receptor gamma (PPAR gamma): non-selective agonists. [Related pubchem assays: 1297, 1032 ]; type: functional
Cytochrome P450 1A2 = biological target: T2, Cytochrome P450 1A2 (Homo sapiens, UniProt P05177);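 further: PubChem cytochrome P450 panel assay, CYP1A2 panel member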
T2 sequence (P05177 whole entry): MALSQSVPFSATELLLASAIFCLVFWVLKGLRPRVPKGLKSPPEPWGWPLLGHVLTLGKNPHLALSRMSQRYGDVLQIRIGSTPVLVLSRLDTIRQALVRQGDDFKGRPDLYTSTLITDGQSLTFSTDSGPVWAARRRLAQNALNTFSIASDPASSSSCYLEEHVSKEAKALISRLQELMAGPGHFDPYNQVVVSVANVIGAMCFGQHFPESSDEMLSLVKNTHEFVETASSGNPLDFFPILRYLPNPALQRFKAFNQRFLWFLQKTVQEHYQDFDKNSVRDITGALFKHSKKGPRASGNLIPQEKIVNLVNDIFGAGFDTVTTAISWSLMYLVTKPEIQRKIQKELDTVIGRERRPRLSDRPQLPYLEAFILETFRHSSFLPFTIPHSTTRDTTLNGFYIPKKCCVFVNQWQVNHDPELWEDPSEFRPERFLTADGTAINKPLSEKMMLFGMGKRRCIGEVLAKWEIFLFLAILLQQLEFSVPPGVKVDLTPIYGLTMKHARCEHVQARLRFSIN

Cytochrome P450 2C9 = Cytochrome P450 2C9 (Homo sapiens, UniProt P11712)
Sequence of Cytochrome P450 2C9 (P11712 whole entry): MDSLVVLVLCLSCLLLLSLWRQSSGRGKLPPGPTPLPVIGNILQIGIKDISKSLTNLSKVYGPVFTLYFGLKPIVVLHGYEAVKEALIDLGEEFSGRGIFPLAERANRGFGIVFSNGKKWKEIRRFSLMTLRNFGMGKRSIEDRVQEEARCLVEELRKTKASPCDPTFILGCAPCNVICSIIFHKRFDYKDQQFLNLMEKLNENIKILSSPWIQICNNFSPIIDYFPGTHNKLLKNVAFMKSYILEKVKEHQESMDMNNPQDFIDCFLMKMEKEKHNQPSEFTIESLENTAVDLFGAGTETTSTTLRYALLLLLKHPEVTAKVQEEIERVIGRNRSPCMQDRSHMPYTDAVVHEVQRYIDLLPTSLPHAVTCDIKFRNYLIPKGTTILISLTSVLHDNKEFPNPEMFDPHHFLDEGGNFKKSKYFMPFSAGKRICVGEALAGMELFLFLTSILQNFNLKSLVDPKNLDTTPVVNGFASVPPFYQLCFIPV

[4] = biological target: Peroxisome proliferator-activated receptor gamma/Nuclear receptor coactivator 3 (Homo sapiens, UniProt P37231); assay: as §1, with “3 (SRC-3)” for “2 (SRC-2)”, “1301 (Confirmation screen.), 1048 (Primary screen.)]” for “1297, 1032 ]”; type: functional
[5] = biological target: Peroxisome proliferator-activated receptor gamma/Nuclear receptor coactivator 1 (Homo sapiens, UniProt P37231); assay: as §1, with “1 (SRC-1)” for “2 (SRC-2)”, “assays (depositor defined):AID1300, AID1808, AID504735, AID631]” for “assays: 1297, 1032 ]”; type: protein assay
Sequence of Peroxisome proliferator-activated receptor gamma/Nuclear receptor coactivator 1 (P37231 whole entry): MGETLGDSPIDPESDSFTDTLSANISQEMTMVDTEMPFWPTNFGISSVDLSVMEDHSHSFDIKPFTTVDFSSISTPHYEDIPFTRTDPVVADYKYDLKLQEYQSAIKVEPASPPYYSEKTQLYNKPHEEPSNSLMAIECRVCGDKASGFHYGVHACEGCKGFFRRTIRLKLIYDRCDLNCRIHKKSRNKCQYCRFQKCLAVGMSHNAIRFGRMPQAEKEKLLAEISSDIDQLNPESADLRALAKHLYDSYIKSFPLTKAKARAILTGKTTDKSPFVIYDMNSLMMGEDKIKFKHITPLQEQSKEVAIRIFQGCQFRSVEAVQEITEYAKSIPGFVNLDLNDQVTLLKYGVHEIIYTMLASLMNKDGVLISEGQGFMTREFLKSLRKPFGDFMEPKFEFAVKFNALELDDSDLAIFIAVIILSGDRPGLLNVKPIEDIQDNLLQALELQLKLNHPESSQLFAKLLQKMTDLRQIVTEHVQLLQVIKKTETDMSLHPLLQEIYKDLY
Sequence of Peroxisome proliferator-activated receptor gamma/Nuclear receptor coactivator 1 (Q15788 whole entry, further chain): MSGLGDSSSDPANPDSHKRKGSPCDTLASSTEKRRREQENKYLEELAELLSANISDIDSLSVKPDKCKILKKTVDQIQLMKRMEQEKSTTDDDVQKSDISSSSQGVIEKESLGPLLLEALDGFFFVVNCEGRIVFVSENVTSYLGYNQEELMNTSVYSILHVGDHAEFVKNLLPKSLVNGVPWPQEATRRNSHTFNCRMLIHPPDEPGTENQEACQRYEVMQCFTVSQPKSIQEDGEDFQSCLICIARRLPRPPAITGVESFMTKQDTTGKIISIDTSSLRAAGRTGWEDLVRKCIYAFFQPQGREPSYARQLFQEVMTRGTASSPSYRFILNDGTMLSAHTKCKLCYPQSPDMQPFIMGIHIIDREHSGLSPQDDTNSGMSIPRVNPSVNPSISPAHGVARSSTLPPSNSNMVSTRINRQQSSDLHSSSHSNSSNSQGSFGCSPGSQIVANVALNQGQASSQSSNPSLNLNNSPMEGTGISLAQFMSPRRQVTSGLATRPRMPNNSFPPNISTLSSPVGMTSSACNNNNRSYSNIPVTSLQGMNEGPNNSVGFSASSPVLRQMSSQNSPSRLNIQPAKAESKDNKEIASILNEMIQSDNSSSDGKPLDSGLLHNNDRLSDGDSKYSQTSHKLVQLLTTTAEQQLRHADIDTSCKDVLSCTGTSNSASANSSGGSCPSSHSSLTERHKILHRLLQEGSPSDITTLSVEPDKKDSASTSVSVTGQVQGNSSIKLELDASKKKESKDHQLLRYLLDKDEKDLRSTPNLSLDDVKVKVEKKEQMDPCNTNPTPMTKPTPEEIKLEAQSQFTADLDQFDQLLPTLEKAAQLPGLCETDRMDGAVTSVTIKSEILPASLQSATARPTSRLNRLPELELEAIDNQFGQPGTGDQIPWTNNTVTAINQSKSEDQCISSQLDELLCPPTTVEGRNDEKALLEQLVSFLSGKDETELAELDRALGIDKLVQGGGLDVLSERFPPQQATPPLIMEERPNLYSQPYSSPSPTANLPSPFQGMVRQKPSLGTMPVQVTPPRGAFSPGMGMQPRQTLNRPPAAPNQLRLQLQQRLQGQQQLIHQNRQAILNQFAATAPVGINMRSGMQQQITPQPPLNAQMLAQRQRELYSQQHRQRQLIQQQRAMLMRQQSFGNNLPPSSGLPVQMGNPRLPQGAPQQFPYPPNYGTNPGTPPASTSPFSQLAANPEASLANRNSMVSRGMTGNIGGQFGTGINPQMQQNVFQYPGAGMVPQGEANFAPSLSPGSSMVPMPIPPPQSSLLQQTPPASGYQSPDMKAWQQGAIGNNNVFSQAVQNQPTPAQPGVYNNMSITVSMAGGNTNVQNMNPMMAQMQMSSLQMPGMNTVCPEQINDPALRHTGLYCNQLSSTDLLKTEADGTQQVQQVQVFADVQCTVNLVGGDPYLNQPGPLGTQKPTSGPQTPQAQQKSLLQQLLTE

[6] = inhibitors of firefly luciferase expression or activity, dose response, H4 neuroglioma cells, luminescence (AID 1990); type: functional, cell-based
[7] = cytotoxicity in HEK-293T cells, dose response, cytotoxicity control for TCR NF-kB inhibitor project, luminescence, T-cell screen hits (AID 489026); type: functional, cell-based;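 further: cells exposed to compound about 14 hours before the viability readout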
[8] = Luminescence Cell-Based Dose HTS Response to Identify Inhibitors of 5'UTR Stem-Loop Driven Prion Protein mRNA Translation in H4-C Neuroglioblastoma Cells. [Related pubchem assays (depositor defined):AID1814, AID1827]; type: functional
[9] = Luminescence Cell-Based Dose Retest to Confirm Activators of 5'UTR Stem-Loop Driven Alpha-Synuclein mRNA Translation in H4 Neuroglioblastoma Cells. [Related pubchem assays (depositor defined):AID1813, AID1829]; type: functional
[10] = cytotoxicity toward DRD oncogenic fibroblasts, dose response, cell-based, non-viral oncogenic, luminescence (AID 1934); type: functional; details: Homo sapiens
[11] = Luminescence Cell-Based Dose Confirmation HTS to Identify Inhibitors of 5'UTR Stem-Loop Driven Alpha-Synuclein mRNA Translation in H4 Neuroglioblastoma Cells. [Related pubchem assays: 1827 (Project Summary), 1813 (Primary HTS)]; type: functional
[12] = Luminescence Cell-Based Dose Response HTS to Identify Activators of 5'UTR Stem-Loop Driven Prion Protein mRNA Translation in H4-C Neuroglioblastoma Cells. [Related pubchem assays: 1829 (Project Summary), 1814 (Primary HTS)]; type: functional
cells = type: functional, cell-based
[13] = Luminescence Cell-Based Dose Response HTS to Identify Activators of Luciferase Translation or Activity in H4-C Neuroglioblastoma Cells. [Related pubchem assays: 1829 (Project Summary), 1814 (Primary HTS)]; type: functional
[14] = Luminescence Cell-Based Dose Response HTS to Identify Inhibitors of Luciferase Translation or Activity in H4-C Neuroglioblastoma Cells. [Related pubchem assays: 1813 (Primary HTS), 1827 (Project Summary)]; type: functional
[15] = inhibitors of SNCA 5'UTR-driven reporter translation, confirmation, H4 neuroglioma cells, luminescence (AID 1988); type: functional, cell-based
[16] = luciferase reporter signal reduction – luminescence, H4-C neuroglioblastoma cells, dose response (AID 2458); type: functional, cell-based;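 further: H4 neuroglioblastoma cells stably carrying a luciferase reporter gene fusion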
[17] = inhibitors of SNCA 5'UTR-driven translation, confirmation, luminescence, H4 neuroglioblastoma cells, dose confirmation (AID 2454); type: functional, cell-based;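 further: H4 neuroglioblastoma cells carrying an alpha-synuclein 5'UTR luciferase reporter; potency for inhibition of the luciferase signal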
BJ [18] = assay: cells; type: functional, cell-based; details: Homo sapiens
[19] = Luminescence Cell-Based Dose Response HTS to Identify Inhibitors of 5'UTR Stem-Loop Driven Prion Protein mRNA Translation in H4 Neuroglioblastoma Cells. [Related pubchem assays: 1827 (Project Summary), 1813 (Primary HTS)]; type: functional
BJ [20] = assay: cytotoxicity toward BJ-TERT-LT-ST fibroblasts, dose response, cell-based, RAS-independent, luminescence (AID 1935); type: functional; details: Homo sapiens;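 further: BJ fibroblasts immortalized with TERT plus LT and ST oncogenes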
CAAX prenyl protease 2 = CAAX prenyl protease 2 (Saccharomyces cerevisiae S288c, UniProt Q03530); type: biochemical
Sequence of CAAX prenyl protease 2 (Q03530 whole entry): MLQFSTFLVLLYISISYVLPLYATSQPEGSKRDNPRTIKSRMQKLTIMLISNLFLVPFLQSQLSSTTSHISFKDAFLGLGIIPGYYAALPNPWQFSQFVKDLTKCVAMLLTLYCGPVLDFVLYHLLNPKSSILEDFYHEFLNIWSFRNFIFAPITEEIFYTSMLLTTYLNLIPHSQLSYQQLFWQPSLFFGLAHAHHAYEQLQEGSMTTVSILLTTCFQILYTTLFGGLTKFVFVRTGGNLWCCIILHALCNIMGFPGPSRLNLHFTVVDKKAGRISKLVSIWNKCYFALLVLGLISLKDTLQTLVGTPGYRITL

BJ [21] = assay: cytotoxicity toward BJ-TERT fibroblasts, dose response, cell-based, RAS-independent, luminescence (AID 1933); type: functional; details: Homo sapiens
[22] = mammalian cell cytotoxicity, dose response, cytotoxicity control, plate reader, cherry-pick samples (AID 504397); type: functional, cell-based

T1 sequence (Q9UBE0 whole entry): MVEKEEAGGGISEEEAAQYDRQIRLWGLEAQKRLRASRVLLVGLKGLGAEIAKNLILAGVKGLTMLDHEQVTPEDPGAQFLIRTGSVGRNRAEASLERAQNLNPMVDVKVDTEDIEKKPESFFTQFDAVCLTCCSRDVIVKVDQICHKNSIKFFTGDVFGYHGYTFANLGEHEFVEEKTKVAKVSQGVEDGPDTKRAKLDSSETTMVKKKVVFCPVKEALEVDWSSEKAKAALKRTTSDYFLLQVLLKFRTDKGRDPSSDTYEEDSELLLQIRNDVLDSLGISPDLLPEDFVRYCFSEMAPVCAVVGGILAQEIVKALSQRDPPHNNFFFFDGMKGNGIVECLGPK
T1 sequence (Q9UBT2 whole entry): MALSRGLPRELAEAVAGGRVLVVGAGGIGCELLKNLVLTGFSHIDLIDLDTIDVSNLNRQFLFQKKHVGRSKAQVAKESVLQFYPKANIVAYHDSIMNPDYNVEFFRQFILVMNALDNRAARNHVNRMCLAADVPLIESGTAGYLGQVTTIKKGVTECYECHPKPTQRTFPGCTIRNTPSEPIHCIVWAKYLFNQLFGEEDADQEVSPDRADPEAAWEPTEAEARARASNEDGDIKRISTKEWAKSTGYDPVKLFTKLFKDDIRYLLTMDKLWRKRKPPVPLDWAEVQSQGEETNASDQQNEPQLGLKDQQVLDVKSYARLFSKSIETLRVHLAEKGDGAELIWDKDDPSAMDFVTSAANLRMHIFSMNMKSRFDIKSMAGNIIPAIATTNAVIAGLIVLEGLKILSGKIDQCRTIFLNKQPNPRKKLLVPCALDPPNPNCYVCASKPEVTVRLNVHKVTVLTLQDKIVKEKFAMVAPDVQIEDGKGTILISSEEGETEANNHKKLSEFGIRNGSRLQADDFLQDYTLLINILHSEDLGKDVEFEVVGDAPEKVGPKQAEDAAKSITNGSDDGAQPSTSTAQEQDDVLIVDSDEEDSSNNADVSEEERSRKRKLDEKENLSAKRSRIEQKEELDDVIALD

In the case of COc1cccc2c(SCC(=O)N/N=C/c3ccc(O)cc3O)cc(C)nc12, the IC50 (SUMO-activating enzyme [1]) is reported as 3.17 µM (active) and the IC50 (SUMO-activating enzyme [2]) is reported as 28.6 µM (active).
In the case of Cn1c(=O)cc(SCC(=O)NCCN2CCN(c3ccccc3F)CC2)c2cc(Cl)ccc21, the EC50 [3] is reported as 7.9 µM (active), the AC50 (Cytochrome P450 1A2) is reported as 39.8 µM (inconclusive) and the AC50 (Cytochrome P450 2C9) is reported as “inconclusive”. For the same molecule, the EC50 [4] was > 79.4 µM (not active) and the EC50 [5] was 33.2 µM (inactive).
In the case of COc1cccc(N2CCN(C(=O)c3ccc(C[S+]([O-])c4ccccc4C)o3)CC2)c1 (centres undefined), the EC50 [6] is reported as 7.05 µM (active), the IC50 [7] is reported as > 80 µM (inactive) and the EC50 [8] is reported as 0.325 µM (active). The EC50 [9] was 22.5 µM (inconclusive), the EC50 [10] was 1.59 µM (active) and the EC50 [11] was 22.5 µM (active). For the same molecule, the EC50 [12] was 0.325 µM (inconclusive), the EC50 (cells) was 2.01 µM (active) and the EC50 [13] was 0.946 µM (inconclusive). The EC50 [14] was 0.946 µM (active), the EC50 [15] was < 0.1 µM (active) and the EC50 [16] was 1.06 µM (active). For the same molecule, the EC50 [17] was > 12 µM (not active), the EC50 (BJ [18]) was 35 µM (active) and the EC50 [19] was 9.12 µM (active). For the same molecule, the EC50 (BJ [20]) was 1.2 µM (active).
With Cc1cccc(OCCCN2C(=O)C(=O)c3cc(C)ccc32)c1 the AC50 (CAAX prenyl protease 2) was 2.77 µM (active), the EC50 [10] was 25.9 µM (active) and the EC50 (BJ [21]) was 5.08 µM (active). For the same molecule, the EC50 (BJ [18]) was > 150 µM (not active), the AC50 [22] was 42.4 µM (active) and the EC50 (BJ [20]) was 11.1 µM (inconclusive).
